# Laboratory results from PubChem BioAssay (NCI).
#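 Compound exposure: 48 hours, 5 concentrations, 96-well plates. TGI is the concentration that stops growth completely.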
# Assays:
# Assay in all cases: DTP human tumour cell line panel, 48 h
# [1] = test system: SK-MEL-28 melanoma
# [2] = test system: IGROV1 ovarian
# [3] = test system: OVCAR-8 ovarian
# [4] = test system: SF-295 CNS
# [5] = test system: EKVX NSCLC
# [6] = test system: HCT-116 colon
# [7] = test system: SK-MEL-2 melanoma
# [8] = test system: 786-0 renal
# [9] = test system: RPMI-8226 leukemia
# [10] = test system: OVCAR-5 ovarian
# [11] = test system: M14 melanoma
# [12] = test system: HOP-62 NSCLC
# [13] = test system: KM12 colon
# [14] = test system: NCI/ADR-RES ovarian
# [15] = test system: SF-268 CNS
# [16] = test system: MOLT-4 leukemia
# [17] = test system: K-562 leukemia
# [18] = test system: SK-MEL-5 melanoma
# [19] = test system: TK-10 renal
# [20] = test system: UACC-62 melanoma
# [21] = test system: SW-620 colon
# [22] = test system: MALME-3M melanoma
# [23] = test system: SNB-75 CNS
# [24] = test system: RXF 393 renal
# [25] = test system: NCI-H226 lung
# [26] = test system: HT29 colon
# [27] = test system: MDA-MB-435
# [28] = test system: NCI-H23 lung
# [29] = test system: MDA-N
# [30] = test system: ACHN renal
# [31] = test system: COLO 205 colon
# [32] = test system: DU-145 prostate
# [33] = test system: MDA-MB-231 breast
# [34] = test system: OVCAR-4 ovarian
# [35] = test system: BT-549 breast
# [36] = test system: UACC-257 melanoma
# [37] = test system: SNB-19 CNS
# [38] = test system: HCT-15 colon
# [39] = test system: UO-31 renal
# [40] = test system: SN12C renal
# [41] = test system: OVCAR-3 ovarian
# [42] = test system: U251 CNS
# [43] = test system: NCI-H460 lung
# [44] = test system: T-47D breast
# [45] = test system: PC-3 prostate
# [46] = test system: CAKI-1 renal
# [47] = test system: HCC-2998 colon
# [48] = test system: HS 578T breast
# [49] = test system: MCF7 breast
# [50] = test system: CCRF-CEM leukemia
# [51] = test system: SK-OV-3 ovarian
# [52] = test system: A549 NSCLC
# [53] = test system: NCI-H522 lung
# [54] = test system: SR leukemia
# [55] = test system: HL-60(TB) leukemia
# [56] = test system: LOX IMVI melanoma
# [57] = test system: HOP-92 NSCLC
# [58] = test system: SF-539 CNS
smiles,measurement,setting,value
Cc1ccc(OCC2OC(n3cnc4nc(Nc5ccc(Cl)c(Cl)c5)nc(Cl)c43)CC2Oc2ccc(C)cc2)cc1 (stereo unspecified),TGI,[1],> 100 µM
same,TGI,[2],> 100 µM
same,TGI,[3],> 100 µM
same,TGI,[4],> 100 µM
same,TGI,[5],> 100 µM
same,TGI,[6],> 100 µM
same,TGI,[7],> 100 µM
same,TGI,[8],> 100 µM
same,TGI,[9],> 100 µM
same,TGI,[10],> 100 µM
same,TGI,[11],> 100 µM
same,TGI,[12],> 100 µM
same,TGI,[13],> 100 µM
same,TGI,[14],> 100 µM
same,TGI,[15],> 100 µM
same,TGI,[16],> 100 µM
same,TGI,[17],> 100 µM
same,TGI,[18],> 100 µM
same,TGI,[19],> 100 µM
same,TGI,[20],> 100 µM
same,TGI,[21],> 100 µM
same,TGI,[22],> 100 µM
same,TGI,[23],> 100 µM
same,TGI,[24],> 100 µM
same,TGI,[25],> 100 µM
same,TGI,[26],> 100 µM
same,TGI,[27],> 100 µM
same,TGI,[28],> 100 µM
same,TGI,[29],> 100 µM
same,TGI,[30],> 100 µM
same,TGI,[31],> 100 µM
same,TGI,[32],> 100 µM
same,TGI,[33],> 100 µM
same,TGI,[34],> 100 µM
same,TGI,[35],> 100 µM
same,TGI,[36],> 100 µM
same,TGI,[37],> 100 µM
same,TGI,[38],> 100 µM
same,TGI,[39],> 100 µM
same,TGI,[40],> 100 µM
same,TGI,[41],> 100 µM
same,TGI,[42],> 100 µM
same,TGI,[43],> 100 µM
same,TGI,[44],> 100 µM
same,TGI,[45],> 100 µM
same,TGI,[46],> 100 µM
same,TGI,[47],> 100 µM
same,TGI,[48],> 100 µM
same,TGI,[49],> 100 µM
same,TGI,[50],> 100 µM
same,TGI,[51],> 100 µM
same,TGI,[52],> 100 µM
CC12CCC(=O)N1c1cncnc1N2 (stereo unspecified),TGI,[53],> 10 µM
same,TGI,[2],> 10 µM
same,TGI,[3],> 10 µM
same,TGI,[4],> 10 µM
same,TGI,[5],> 10 µM
same,TGI,[6],> 10 µM
same,TGI,[7],> 10 µM
same,TGI,[8],> 10 µM
same,TGI,[10],> 10 µM
same,TGI,[11],> 10 µM
same,TGI,[13],> 10 µM
same,TGI,[14],> 10 µM
same,TGI,[15],> 10 µM
same,TGI,[16],> 10 µM
same,TGI,[17],> 10 µM
same,TGI,[19],> 10 µM
same,TGI,[20],> 10 µM
same,TGI,[54],> 10 µM
same,TGI,[55],> 10 µM
same,TGI,[21],> 10 µM
same,TGI,[56],> 10 µM
same,TGI,[22],> 10 µM
same,TGI,[23],> 10 µM
same,TGI,[25],> 10 µM
same,TGI,[26],> 10 µM
same,TGI,[27],> 10 µM
same,TGI,[28],> 10 µM
same,TGI,[29],> 10 µM
same,TGI,[30],> 10 µM
same,TGI,[32],> 10 µM
same,TGI,[34],> 10 µM
same,TGI,[35],> 10 µM
same,TGI,[36],> 10 µM
same,TGI,[37],> 10 µM
same,TGI,[38],> 10 µM
same,TGI,[39],> 10 µM
same,TGI,[57],> 10 µM
same,TGI,[40],> 10 µM
same,TGI,[41],> 10 µM
same,TGI,[42],> 10 µM
same,TGI,[43],> 10 µM
same,TGI,[45],> 10 µM
same,TGI,[47],> 10 µM
same,TGI,[48],> 10 µM
same,TGI,[49],> 10 µM
same,TGI,[50],> 10 µM
same,TGI,[51],> 10 µM
same,TGI,[58],> 10 µM
same,TGI,[52],> 10 µM
